Measurements taken from article PMC11323500, “Functional redundancy of ubiquitin-like sulfur-carrier proteins facilitates flexible, efficient sulfur utilization in the primordial archaeon Thermococcus kodakarensis” (mBio, 2024).

Molecular target: T1, TK2117 (with TK2118 / UblB) (Thermococcus kodakarensis, UniProt Q5JEX2)
T1 construct: tag removal not mentioned; with Ubiquitin-like sulfur-carrier protein UblB (MoaD family)
T1 sequence (Q5JEX2 1-232): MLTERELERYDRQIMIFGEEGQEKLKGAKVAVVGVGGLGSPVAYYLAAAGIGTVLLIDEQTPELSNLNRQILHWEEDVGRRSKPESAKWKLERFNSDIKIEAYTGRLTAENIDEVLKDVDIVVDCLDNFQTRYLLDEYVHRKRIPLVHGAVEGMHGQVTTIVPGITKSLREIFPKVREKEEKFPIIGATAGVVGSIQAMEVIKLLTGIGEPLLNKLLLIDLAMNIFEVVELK
T1 sequence (Q5JEX1 1-88 partner): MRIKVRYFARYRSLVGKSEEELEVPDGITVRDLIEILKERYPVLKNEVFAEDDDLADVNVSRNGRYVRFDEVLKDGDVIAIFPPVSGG
Experiment: pyrophosphate release measured as phosphate (Biomol Green, inorganic pyrophosphatase)
Type: biochemical
Details: 10 mM ATP; 5 mM MgCl2; 4.0 µM TK2117; 10.0 µM TK2118 as co-substrate; pH 8.0; 80 °C

Compound: Nc1ncnc2c1ncn2[C@@H]1O[C@H](COP(=O)(O)OP(=O)(O)OP(=O)(O)O)[C@@H](O)[C@H]1O [ATP]
- pyrophosphate release measured as phosphate (Biomol Green, inorganic pyrophospha): TK2117 formed pyrophosphate in the presence of TK2118
